Test results reported in US20240293558A1, “KRAS INHIBITOR CONJUGATES” (Erasca, Inc., priority 2021, published 2024).
Read-outs that look alike come from different tables or passages of the source.

Columns and labels:
[1] = molecular target: T1, KRAS (WT) (Homo sapiens, UniProt P01116); experiment: In-vitro RAS-RAF binding assay (RRB), HTRF/FRET; type: biochemical; conditions: read-out: Inhibition of RAS-RAF Binding (in-vitro) KRAS (WT) IC50
T1 construct: Biotinylated KRAS protein amino acids 1-169 (produced at Erasca); made in house
T1 sequence (P01116 1-169 isoform P01116-2): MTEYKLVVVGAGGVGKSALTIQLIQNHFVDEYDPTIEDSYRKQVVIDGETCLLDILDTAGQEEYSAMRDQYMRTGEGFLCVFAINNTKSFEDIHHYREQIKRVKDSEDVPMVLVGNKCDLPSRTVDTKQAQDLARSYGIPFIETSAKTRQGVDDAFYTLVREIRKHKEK
Procedure, shortened: (§1)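 Biotinylated KRAS 1-169 (streptavidin-terbium donor, 30 nM) and GST-cRAF RBD (anti-GST d2 acceptor, 30 nM) in HEPES pH 7.5, NaCl, MgCl2, DTT buffer. After compound incubation, SOS1 catalytic domain plus GTPgS drive 60 min nucleotide exchange. HTRF FRET read at equilibrium, in duplicate.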

[2] = molecular target: T2, KRas G12D fused to HiBiT peptide (Homo sapiens, UniProt P01116, G12D); experiment: ASPC-1 HiBit assay to determine G12D degradation; type: cell-based; conditions: AsPC-1 HiBiT cells, 24-hour incubation; read-out: ASPC-1 HiBit DC50 (C)
T2 construct: endogenous in cells; host or cells: AsPC-1 HiBiT knock-in single clone (Cas9 RNP + ssODN)
T2 sequence (P01116 1-188 isoform P01116-2 G12D): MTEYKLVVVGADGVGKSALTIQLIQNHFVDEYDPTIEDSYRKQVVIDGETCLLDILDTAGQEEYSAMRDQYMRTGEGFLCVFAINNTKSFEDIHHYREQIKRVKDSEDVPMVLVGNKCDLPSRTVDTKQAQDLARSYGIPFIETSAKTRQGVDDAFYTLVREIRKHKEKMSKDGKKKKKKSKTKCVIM
Procedure, shortened: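 Homozygous AsPC-1 clone with N-terminal HiBiT knock-in on endogenous KRas G12D, 24 h compound exposure, top dose 10 μM, 3-fold, 10 points, 1% DMSO. Lytic HiBiT luminescence normalised to DMSO and inhibitor controls gives % degradation; DC50 from 4-parameter fit after hook-effect points removed.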

[3] = molecular target: KRAS G12D (Homo sapiens, UniProt P01116, G12D); experiment: In-vitro RAS-RAF binding assay (RRB), HTRF/FRET; type: biochemical; parameters: Biotinylated KRAS protein amino acids 1-169 (produced at Erasca); made in house; conditions: read-out: Inhibition of RAS-RAF Binding (in-vitro) KRAS (G12D) IC50
Chain of KRAS G12D (P01116 1-169 isoform P01116-2 G12D): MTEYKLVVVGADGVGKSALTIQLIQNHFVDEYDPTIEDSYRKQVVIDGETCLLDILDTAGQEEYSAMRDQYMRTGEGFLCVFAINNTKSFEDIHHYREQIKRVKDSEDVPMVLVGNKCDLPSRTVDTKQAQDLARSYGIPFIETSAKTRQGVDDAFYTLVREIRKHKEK
Procedure, shortened: as §1

[4] = Table 2, average of multiple runs of each compound

SMILES	IC50 [1, 4] [nM]	DC50 [2] [nM]	IC50 [3, 4] [nM]	IC50 ([1]; Table 1) [nM]	IC50 ([3]; Table 1) [nM]
C[C@H](NC(=O)[C@@H]1C[C@@H](O)CN1C(=O)[C@@H](NC(=O)CCOCCCN1CCC[C@H]1COc1nc(N2CC3CCC(C2)N3)c2cc(C(F)(F)F)c(-c3ccc(F)c4sc(N)c(C#N)c34)c(F)c2n1)C(C)(C)C)c1ccc(-c2c(F)cccc2F)cc1 (single isomer, unassigned) [Example 20]	26.9	22.7	8.52	–	–
Cc1ncsc1-c1ccc([C@H](C)NC(=O)[C@@H]2C[C@@H](O)CN2C(=O)[C@@H](NC(=O)CCOCCCN2CCCC2COc2nc(N3CC4CCC(C3)N4)c3cc(Cl)c(-c4ccc(F)c5sc(N)c(C#N)c45)c(F)c3n2)C(C)(C)C)cc1 (stereo partly drawn) [Example 8, (2S,4R)-1-[(2S)-2-[3-[3-[2-[[7-(2-amino-3-cyano-7-fluoro-benzothiophen-4-yl)-6-chloro-4-(3,8-diazabicyclo[3.2.1]octan-3-yl)-8-fluoro-quinazolin-2-yl]oxymethyl]pyrrolidin-1-yl]propoxy]propanoylamino]-3,3-dimethyl-butanoyl]-4-hydroxy-N-[(1S)-1-[4-(4-methylthiazol-5-yl)phenyl]ethyl]pyrrolidine-2-carboxamide]	25.9	126	8.18	51	11
